Patent US20150005348A1, “AMIDE COMPOUND AND USE THEREOF FOR PEST CONTROL” (SUMITOMO CHEMICAL COMPANY, LIMITED, priority 2012, published 2015)

tested on: last instar larvae of common house mosquitos (Culexpipienspallens); assay: Larval mortality test on common house mosquitos in treated water (Test Example 5); type: in vivo; conditions: Culicidae, 192 h; active ingredient 3.5 ppm in ion-exchanged water; 20 last instar larvae; observed after 8 days
Procedure: Each of the formulations of Compounds (4), (5), (11) and (12) of the present invention obtained in Formulation Example 15 was diluted with water, so as to have a concentration of active ingredient of 500 ppm, to prepare a test drug solution.
0.7 ml of the test drug solution was added to 100 ml of ion-exchanged water (a concentration of active ingredient of 3.5 ppm).

SMILES	mortality at 3.5 ppm [%]
O=C(/C=C/CCCCCCc1ccccc1)NCC1CCOCC1 [Compound (11), (E)-N-(tetrahydropyran-4-ylmethyl)-9-phenyl-2-noneneamide]	≥ 95
C/C(=C\C(=O)NCC1CCOCC1)CCCc1ccccc1 [Compound (12), (E)-N-(tetrahydropyran-4-ylmethyl)-3-methyl-6-phenyl-2-hexeneamide]	≥ 95
O=C(/C=C/CCCCCCCc1ccccc1)NCC1CCOC1 (stereo not shown) [Compound (5), (E)-N-(tetrahydrofuran-3-ylmethyl)-10-phenyl-2-deceneamide]	≥ 95
O=C(/C=C/CCCCCCc1ccccc1)NCC1CCOC1 (stereo not shown) [Compound (4), (E)-N-(tetrahydrofuran-3-ylmethyl)-9-phenyl-2-noneneamide]	≥ 95
